Article PMC6503114, “Application of Antimicrobial Peptides of the Innate Immune System in Combination With Conventional Antibiotics—A Novel Way to Combat Antibiotic Resistance?” (Frontiers in Cellular and Infection Microbiology, 2019)
Converted amounts (≈) assume the structure as drawn. Like-named read-outs stand apart in the source and are kept apart here. Where no end group is shown, it is not given here.

Assays:
[1] = test system: K562; settings: K562 tumor cells (doxorubicin-sensitive); MTT, 24 h
Method: The human erythromyeloid leukemia cell line K562 was obtained from the collection of the Institute of Cytology RAS (Saint Petersburg, Russia) and cultured in RPMI-1640 medium containing gentamicin (100 μg/ml) and 10% of fetal bovine serum at 37°C, 5% CO2. […] Drug resistance was maintained by monthly selection with the antibiotic (2 μg/ml in the culturing medium). Doxorubicin was removed from the medium 3 days prior to beginning any experiments. Before the testing K562 cells were washed twice with PBS and resuspended in RPMI-1640 in the same way as the other cell types.
We calculated Fractional Effective Concentration Index (FECI), which could be seen as a particular case of the interaction index (I) proposed by Berenbaum ([1977]) or of the similar combination index (CI) proposed by Chou and Talalay ([1983]), according to the equation below: […]
(§1) Here, [MEC A] and [MEC B] are the minimum effective concentrations (MEC) of substances A and B, when they are used alone. […] [A] and [B] are respective concentrations of substances A and B in their combination, where the same statistically significant difference is detected. A non-parametric Mann-Whitney U-test (p < 0.05 or p < 0.01) was used for the mentioned statistical comparison.
(§2) We have chosen the same intervals as that of FICI to determine synergy, additivity, independent action, and antagonism based on the minimal FECI values. However, in case of cytotoxic or hemolytic effect we were interested mainly in testing the possibility of additive or synergistic interaction itself, and not in assessing the exact magnitude of such interaction. Thus, in contrast to the “checkerboard titration” method used for combined antimicrobial activity investigation, studying the combined cytotoxic effect, we considered only two combinations of concentrations for the substances A and B in the mixture: • (½ MEC A + ½ MEC B), which, if found effective, provides the FECI value of 1 (the threshold value for additivity); • (¼ MEC A + ¼ MEC B), which, if found effective, provides the FECI value of 0.5 (the threshold value for synergetic interaction).
(§3) When action on tumor cells was tested in combination with antitumor antibiotic the lower concentrations up to ( 1/16 MEC A + 1/16 MEC B) as in checkerboard titration were additionally examined to assess the magnitude of synergistic effect more precisely. The final conclusion was made based on the three independent experiments.
Standard MTT-test (Mosmann, [1983]) was used for the examination of the cytotoxic activity of antimicrobial compounds and their combinations toward varied eukaryotic cells. Briefly, cell suspensions in RPMI-1640 prepared as described in Eukaryotic Cells were dispensed into the 96-well microplates (2 × 10^5 cells/well). Then, serial dilutions of AMPs, or other antibiotic compounds, or their mixtures in RPMI-1640 were added. In positive controls (100% cell survival) the according volume of RPMI-1640 without test substances was added instead. The final volume in each well was 100 μl. Negative controls (0% cell survival) were made with 100 μl of the sterile RPMI-1640. The plates were incubated at 37°C under 5% CO2 for 24 h. Four hours before the end of incubation, 10 μl of metabolic marker MTT−3-(4,5-dimethylthiazol-2-yl)-2,5-diphenyltetrazolium bromide (5 mg/ml, diluted in PBS) was added to each well. Incubation was stopped by adding 90 μl of isopropanol containing 0.04 M HCl. Content of the wells was thoroughly mixed, so that the formazan crystals, formed in case of the reduction of MTT in presence of actively metabolizing cells, were fully dissolved.

[2] = test system: A. baumannii (clin. isol.); assay: microbe, parasite or virus in culture; type: cell-based, Acinetobacter baumannii
Method: Prior to the “checkerboard” synergy test the minimal inhibitory concentrations (MIC) of individual substances were determined using broth microdilution assay. Testing was performed in 60-well polystyrene Terasaki microplates with V-shaped bottom generally according to the guidelines of the European Committee for Antimicrobial Susceptibility Testing with subtle modifications designed for AMP testing (Tossi et al., [1997]; Wiegand et al., [2008]). Cultivation of bacteria was carried out in 2.1% Müller-Hinton broth at 37°C with shaking. Two-fold serial dilutions of peptides, antibiotics and other antimicrobials were made with 10 mM sodium phosphate buffer, pH 7.4, containing 0.1% of BSA. The plates were preliminary incubated with 0.1% BSA for 1 h at 37°C to reduce a non-specific binding of peptides to the plates. After that BSA was removed, and serial dilutions were added into the plate wells in triplicates followed by the same volume of the suspension of bacterial cells in logarithmic phase of growth in concentration of 1 × 10^6 CFU/ml. After the 18 h overnight incubation at 37°C, the MIC value for each compound was determined as its lowest concentration completely inhibiting the visible growth of bacteria. The final results were calculated as median values based on 3–6 independent experiments.

[3] = test system: human erythrocytes
Method: To obtain erythrocytes, heparinized blood was centrifuged for 10 min at 300 g and 4°C. The supernatant liquid was removed, 10 ml of cooled PBS containing 4 mM of EDTA (pH 7.4) was added to the precipitate, and the mixture was centrifuged for 10 min under the same conditions. Then, red blood cells were washed three more times with cooled PBS. The sedimented red blood cells were used for the hemolytic test.
as §1, §2, §3
Two hundred eighty microliters of erythrocyte precipitate obtained as described in section Eukaryotic Cells was added into the sterile 15 ml tube and its volume was adjusted to 10 ml with cooled PBS. Using 0.5 ml plastic tubes, 3 μl of the tested compound serially diluted in PBS or of the combination of two compounds were mixed with the 27 μl of the prepared erythrocyte suspension for each sample. For positive control (100% lysis of erythrocytes) 3 μl of the detergent (10% Triton X-100 solution in PBS) were added to the 27 μl of the erythrocyte suspension, and for negative control (0% lysis of erythrocytes) 3 μl of the PBS were used instead of any cell-damaging compound. […] After incubation, the hemolysis process was stopped by the addition of 75 μl of cooled PBS. The samples were centrifuged at 5,000 g and 4°C for 4 min. The optical density of the supernatants was measured at a wavelength of 540 nm using SpectraMax 250 Spectrophotometer (Molecular Devices, USA). The experiments were repeated three times. In each experiment all the test or control samples were made in triplicates. The percentage of hemolysis of erythrocytes was assessed by the following formula:
where ODsample, OD0%lysis, and OD100%lysis are values of the OD at 540 nm for the test sample, negative (0% lysis) control, and positive (100% lysis) control, respectively. However, due to the design of the study of combined action, described above in Combined Hemolytic or Cytotoxic Action, the obtained ODsample and OD0%lysis values were rather used to determine MECs and FECI by the Mann-Whitney U-test (p < 0.05, n1, n2 = 3).

[4] = A. baumannii (clin. isol.), susceptible, median of 3–6 experiments, read-out: MIC
[5] = Acinetobacter baumannii, A. baumannii (clin. isol.), susceptible, median of 3–6 experiments, read-out: MIC

Row | Compound | MEC of cytotoxic action [1] | MIC ([2]; Acinetobacter baumannii) [µM] | hemolytic action (in words) [3] | MEC of hemolysis of human erythrocytes ([3]; human, 30 min) | MIC [2, 4] [µM] | MEC of hemolysis of human erythrocytes [3] | MEC of hemolysis of human erythrocytes ([3]; 30 min, 37°C, no blood serum) | MIC [2, 5] [µM]
1 | CO[C@H]1/C=C/O[C@@]2(C)Oc3c(C)c(O)c4c(O)c(c(/C=N/N5CCN(C)CC5)c(O)c4c3C2=O)NC(=O)/C(C)=C\C=C\[C@H](C)[C@H](O)[C@@H](C)[C@@H](O)[C@@H](C)[C@H](OC(C)=O)[C@@H]1C [Rifampicin] | >20 [40] μM | 0.125 (≈ 0.103 µg/mL) | slight hemolityc action | 20 µM |  |  |  | 
2 | Lysozyme: egg white lysozyme, antimicrobial protein, from BioChemica | >50 [100] μM |  |  |  | 1.2 | >50 [100] μM |  | 
3 | CC[C@H](C)[C@H](NC(=O)[C@H](CCCCN)NC(=O)[C@H](CCC(=O)O)NC(=O)[C@H](CCCCN)NC(=O)[C@H](CO)NC(=O)[C@H](CCCCN)NC(=O)[C@H](CCCNC(=N)N)NC(=O)[C@H](Cc1ccccc1)NC(=O)[C@H](Cc1ccccc1)NC(=O)[C@H](CC(=O)O)NC(=O)CNC(=O)[C@H](CC(C)C)NC(=O)[C@@H](N)CC(C)C)C(=O)NCC(=O)N[C@@H](CCCCN)C(=O)N[C@@H](CCC(=O)O)C(=O)N[C@@H](Cc1ccccc1)C(=O)N[C@@H](CCCCN)C(=O)N[C@@H](CCCNC(=N)N)C(=O)N[C@H](C(=O)N[C@H](C(=O)N[C@@H](CCC(N)=O)C(=O)N[C@@H](CCCNC(=N)N)C(=O)N[C@H](C(=O)N[C@@H](CCCCN)C(=O)N[C@@H](CC(=O)O)C(=O)N[C@@H](Cc1ccccc1)C(=O)N[C@@H](CC(C)C)C(=O)N[C@@H](CCCNC(=N)N)C(=O)N[C@@H](CC(N)=O)C(=O)N[C@@H](CC(C)C)C(=O)N[C@H](C(=O)N1CCC[C@H]1C(=O)N[C@@H](CCCNC(=N)N)C(=O)N[C@H](C(=O)N[C@@H](CCC(=O)O)C(=O)N[C@@H](CO)C(=O)O)[C@@H](C)O)C(C)C)[C@@H](C)CC)C(C)C)[C@@H](C)CC [LL-37] | 5.0 µM |  |  |  |  |  | 5.0 µM | 
4 | CNC(C)C1CCC(N)C(OC2C(N)CC(N)C(OC3OCC(C)(O)C(NC)C3O)C2O)O1 (stereo not drawn) [Gentamicin] | 50 µM |  |  | >50 [100] μM |  |  |  | 0.06 (≈ 0.0287 µg/mL)
5 | Cc1onc(-c2ccccc2)c1C(=O)N[C@@H]1C(=O)N2[C@@H]1SC(C)(C)[C@@H]2C(=O)O [Oxacillin] | >50 [100] μM |  | slight hemolityc action | 25 µM |  |  |  | 25 (≈ 10 µg/mL)
6 | RFRLPFRRPPIRIHPPPFYPPFRRFL-NH2 (C-terminus assumed) [ChBac3.4] | 20 µM |  |  |  |  | >50 [100] μM |  | 
7 | CC1COc2c(N3CCN(C)CC3)c(F)cc3c(=O)c(C(=O)O)cn1c23 (stereo not drawn) [Ofloxacin] | >50 [100] μM |  |  | >50 [100] μM |  |  |  | 0.3 (≈ 0.108 µg/mL)
8 | Polymyxin B | 25 µM |  |  |  | 1.25 |  | >50 [100] μM | 
